Measurements published in patent US10781211B2, “Spirocycle compounds and methods of making and using same” (Lundbeck La Jolla Research Center, Inc., priority 2016, dated 2020).

Key:
Assay type in all cases: in vivo
Details in all cases: 5 mg/kg oral gavage
FAAH = FAAH (Mus musculus (Mouse), UniProt O08914); assay: Mouse brain proteomes from inhibitor treated mice (oral gavage, sacrifice 4 h after administration, ABPP analysis), FAAH
Summary of the method: (§1)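 Wild-type C57Bl/6J mice were dosed by oral gavage in vehicle (e.g. PEG400/Ethanol/PBS 7/2/1) and sacrificed 4 h later. Brain proteomes were analysed by activity-based protein profiling; values are % inhibition at 5 mg/kg.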

MAGL = MAGL (Mus musculus (Mouse), UniProt O35678); assay: Mouse brain proteomes from inhibitor treated mice (oral gavage, sacrifice 4 h after administration, ABPP analysis)
Summary of the method: as §1

ABHD6 = ABHD6 (Mus musculus (Mouse), UniProt Q8R2Y0); assay: Mouse brain proteomes from inhibitor treated mice (oral gavage, sacrifice 4 h after administration, ABPP analysis), ABHD6
Summary of the method: as §1

Sequence of MAGL (O35678 whole entry): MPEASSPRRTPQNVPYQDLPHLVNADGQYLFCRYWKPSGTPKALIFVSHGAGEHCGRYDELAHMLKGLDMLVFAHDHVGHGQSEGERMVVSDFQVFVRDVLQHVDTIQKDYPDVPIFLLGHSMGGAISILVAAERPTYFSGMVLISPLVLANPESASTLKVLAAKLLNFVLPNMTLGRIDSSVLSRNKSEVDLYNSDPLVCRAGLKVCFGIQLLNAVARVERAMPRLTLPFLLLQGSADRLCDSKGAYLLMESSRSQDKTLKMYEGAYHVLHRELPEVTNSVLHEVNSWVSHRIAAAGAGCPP
Sequence of ABHD6 (Q8R2Y0 whole entry): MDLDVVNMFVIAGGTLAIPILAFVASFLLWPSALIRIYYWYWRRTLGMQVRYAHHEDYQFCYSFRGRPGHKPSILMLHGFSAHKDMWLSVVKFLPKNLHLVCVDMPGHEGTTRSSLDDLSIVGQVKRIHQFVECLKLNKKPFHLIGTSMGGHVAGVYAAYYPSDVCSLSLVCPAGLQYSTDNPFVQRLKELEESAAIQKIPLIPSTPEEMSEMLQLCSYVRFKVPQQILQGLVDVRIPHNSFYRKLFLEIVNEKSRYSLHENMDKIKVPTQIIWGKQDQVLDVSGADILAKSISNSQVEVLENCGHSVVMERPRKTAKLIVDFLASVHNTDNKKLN
Sequence of FAAH (O08914 whole entry): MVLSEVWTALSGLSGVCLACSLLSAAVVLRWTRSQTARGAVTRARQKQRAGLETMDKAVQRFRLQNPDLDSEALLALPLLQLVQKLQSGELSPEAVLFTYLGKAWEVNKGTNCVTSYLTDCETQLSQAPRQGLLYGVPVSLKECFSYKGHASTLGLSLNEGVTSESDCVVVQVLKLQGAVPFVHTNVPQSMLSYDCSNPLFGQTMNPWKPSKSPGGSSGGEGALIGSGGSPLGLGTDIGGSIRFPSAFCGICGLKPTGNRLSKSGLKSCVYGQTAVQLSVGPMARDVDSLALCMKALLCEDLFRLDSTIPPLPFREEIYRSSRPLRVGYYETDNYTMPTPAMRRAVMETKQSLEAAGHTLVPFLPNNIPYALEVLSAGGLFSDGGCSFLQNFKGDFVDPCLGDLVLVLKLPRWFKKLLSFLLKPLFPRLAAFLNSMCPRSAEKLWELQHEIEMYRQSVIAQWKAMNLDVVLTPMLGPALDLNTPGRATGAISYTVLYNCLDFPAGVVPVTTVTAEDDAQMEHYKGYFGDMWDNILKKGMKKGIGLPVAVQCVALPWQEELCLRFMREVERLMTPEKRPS

Compound | FAAH % Inh 5 mg/kg (mouse) (FAAH) | MAGL % Inh 5 mg/kg (mouse) (MAGL) | ABHD6 % Inh 5 mg/kg (mouse) (ABHD6)
O=C(OC(C(F)(F)F)C(F)(F)F)N1CCC2(CCCN2Cc2ccc(Cl)cc2N2CCC(F)(F)CC2)CC1 [Example 101, 1,1,1,3,3,3-Hexafluoropropan-2-yl 1-(4-chloro-2-(4,4-difluoropiperidin-1-yl)benzyl)-1,8-diazaspiro[4.5]decane-8-carboxylate] | # (# is < 25%) | ### (### is ≥ 75%) | # (# is < 25%)
O=C(O)[C@@H]1CCCN(c2cc(C(F)(F)F)ccc2CN2CCCC23CCN(C(=O)OC(C(F)(F)F)C(F)(F)F)CC3)C1 [Example 214] | # (# is < 25%) | ### (### is ≥ 75%) | # (# is < 25%)
O=C(OC(C(F)(F)F)C(F)(F)F)N1CCC2(CCCN2Cc2cccc(N3CCCC3)c2Cl)CC1 [Example 81, 1,1,1,3,3,3-Hexafluoropropan-2-yl 1-(2-chloro-3-(pyrrolidin-1-yl)benzyl)-1,8-diazaspiro[4.5]decane-8-carboxylate] | # (# is < 25%) | ### (### is ≥ 75%) | # (# is < 25%)
CS(=O)(=O)NC1CCN(c2cc(Cl)ccc2CN2CCCC23CCN(C(=O)OC(C(F)(F)F)C(F)(F)F)CC3)CC1 [Example 105, 1,1,1,3,3,3-Hexafluoropropan-2-yl 1-(4-chloro-2-(4-(methylsulfonamido)piperidin-1-yl)benzyl)-1,8-diazaspiro[4.5]decane-8-carboxylate] | # (# is < 25%) | # (# is < 25%) | # (# is < 25%)
COc1cccc(CN2CCCC23CCN(C(=O)OC(C(F)(F)F)C(F)(F)F)CC3)c1Cl [Example 7, 1,1,1,3,3,3-Hexafluoropropan-2-yl 1-(2-chloro-3-methoxybenzyl)-1,8-diazaspiro[4.5]decane-8-carboxylate] | ### (### is ≥ 75%) | ### (### is ≥ 75%) | # (# is < 25%)
CCOc1cc(CN2CCCC23CCN(C(=O)OC(C(F)(F)F)C(F)(F)F)CC3)ccc1Cl [Example 32, 1,1,1,3,3,3-Hexafluoropropan-2-yl 1-(4-chloro-3-ethoxybenzyl)-1,8-diazaspiro[4.5]decane-8-carboxylate] | # (# is < 25%) | ### (### is ≥ 75%) | # (# is < 25%)
O=C(O)C1CN(c2cc(C(F)(F)F)ccc2CN2CCCC23CCN(C(=O)OC(C(F)(F)F)C(F)(F)F)CC3)CCO1 (stereo not drawn) [Example 197, 4-(2-((8-(((1,1,1,3,3,3-Hexafluoropropan-2-yl)oxy)carbonyl)-1,8-diazaspiro[4.5]decan-1-yl)methyl)-5-(trifluoromethyl)phenyl)morpholine-2-carboxylic acid] | # (# is < 25%) | # (# is < 25%) | # (# is < 25%)
O=C(OC(C(F)(F)F)C(F)(F)F)N1CCC2(CCCN2Cc2ccc(Cl)c(N3CCCC3)c2)CC1 [Example 132, 1,1,1,3,3,3-Hexafluoropropan-2-yl 1-(4-chloro-3-(pyrrolidin-1-yl)benzyl)-1,8-diazaspiro[4.5]decane-8-carboxylate] | # (# is < 25%) | ### (### is ≥ 75%) | # (# is < 25%)
O=C(OC(C(F)(F)F)C(F)(F)F)N1CCC2(CCN(Cc3ccc(C(F)(F)F)cc3N3CCOCC3)C2)CC1 [Example 22, 1,1,1,3,3,3-Hexafluoropropan-2-yl 2-(2-morpholino-4-(trifluoromethyl)benzyl)-2,8-diazaspiro[4.5]decane-8-carboxylate] | # (# is < 25%) | ### (### is ≥ 75%) | # (# is < 25%)
O=C(OC(C(F)(F)F)C(F)(F)F)N1CCC2(CCN(Cc3ccc(Cl)cc3N3CCCCC3)C2)CC1 [Example 24, 1,1,1,3,3,3-Hexafluoropropan-2-yl 2-(4-chloro-2-(piperidin-1-yl)benzyl)-2,8-diazaspiro[4.5]decane-8-carboxylate] | # (# is < 25%) | ### (### is ≥ 75%) | # (# is < 25%)
CS(=O)(=O)N1CCN(c2cc(Cl)ccc2CN2CCCC23CCN(C(=O)OC(C(F)(F)F)C(F)(F)F)CC3)CC1 [Example 100, 1,1,1,3,3,3-Hexafluoropropan-2-yl 1-(4-chloro-2-(4-(methylsulfonyl)piperazin-1-yl)benzyl)-1,8-diazaspiro[4.5]decane-8-carboxylate] | # (# is < 25%) | ### (### is ≥ 75%) | # (# is < 25%)
CCc1cc(CN2CCCC23CCN(C(=O)OC(C(F)(F)F)C(F)(F)F)CC3)ccc1F [Example 150, 1,1,1,3,3,3-Hexafluoropropan-2-yl 1-(3-ethyl-4-fluorobenzyl)-1,8-diazaspiro[4.5]decane-8-carboxylate] | # (# is < 25%) | ### (### is ≥ 75%) | # (# is < 25%)
CS(=O)(=O)N1CCN(c2cc(C(F)(F)F)ccc2CN2CCCC23CCN(C(=O)OC(C(F)(F)F)C(F)(F)F)CC3)CC1 [Example 89, 1,1,1,3,3,3-Hexafluoropropan-2-yl 1-(2-(4-(methylsulfonyl)piperazin-1-yl)-4-(trifluoromethyl)benzyl)-1,8-diazaspiro[4.5]decane-8-carboxylate] | # (# is < 25%) | # (# is < 25%) | # (# is < 25%)
O=C(OC(C(F)(F)F)C(F)(F)F)N1CCC2(CCCN2Cc2ccc(Cl)cc2N2CC3CCC(C2)O3)CC1 [Example 75, 1,1,1,3,3,3-Hexafluoropropan-2-yl 1-(2-(8-oxa-3-azabicyclo[3.2.1]octan-3-yl)-4-chlorobenzyl)-1,8-diazaspiro[4.5]decane-8-carboxylate] | # (# is < 25%) | ### (### is ≥ 75%) | # (# is < 25%)

Other lines, results leading:

FAAH % Inh 5 mg/kg (mouse) (FAAH) | MAGL % Inh 5 mg/kg (mouse) (MAGL) | ABHD6 % Inh 5 mg/kg (mouse) (ABHD6) | Compound
# (# is < 25%) | ### (### is ≥ 75%) | # (# is < 25%) | O=C(O)[C@H]1CCCN(c2cc(C(F)(F)F)ccc2CN2CCCC23CCN(C(=O)OC(C(F)(F)F)C(F)(F)F)CC3)C1 [Example 217]
# (# is < 25%) | ### (### is ≥ 75%) | # (# is < 25%) | O=C(OC(C(F)(F)F)C(F)(F)F)N1CCC2(CCCN2Cc2cc(N3CCS(=O)(=O)CC3)cc(C(F)(F)F)c2)CC1 [Example 42, 1,1,1,3,3,3-Hexafluoropropan-2-yl 1-(3-(1,1-dioxidothiomorpholino)-5-(trifluoromethyl)benzyl)-1,8-diazaspiro[4.5]decane-8-carboxylate]
# (# is < 25%) | ### (### is ≥ 75%) | # (# is < 25%) | O=C(OC(C(F)(F)F)C(F)(F)F)N1CCC2(CCCN2Cc2ccc(C(F)(F)F)c(N3CCOCC3)c2)CC1 [Example 133, 1,1,1,3,3,3-Hexafluoropropan-2-yl 1-(3-morpholino-4-(trifluoromethyl)benzyl)-1,8-diazaspiro[4.5]decane-8-carboxylate]
# (# is < 25%) | # (# is < 25%) | # (# is < 25%) | CN(C)C(=O)C1CCN(c2cc(C(F)(F)F)ccc2CN2CCCC23CCN(C(=O)OC(C(F)(F)F)C(F)(F)F)CC3)CC1 [Example 16, 1,1,1,3,3,3-Hexafluoropropan-2-yl 1-(2-(4-(dimethylcarbamoyl)piperidin-1-yl)-4-(trifluoromethyl)benzyl)-1,8-diazaspiro[4.5]decane-8-carboxylate]
# (# is < 25%) | ### (### is ≥ 75%) | # (# is < 25%) | O=C(O)[C@H]1CCCCN1c1cc(CN2CCCC23CCN(C(=O)OC(C(F)(F)F)C(F)(F)F)CC3)cc(C(F)(F)F)c1 [Example 274]
# (# is < 25%) | ### (### is ≥ 75%) | # (# is < 25%) | O=C(OC(C(F)(F)F)C(F)(F)F)N1CCC2(CCCN2Cc2ccc(C(F)(F)F)cc2N2CCOCC2)CC1 [Example 67, 1,1,1,3,3,3-Hexafluoropropan-2-yl 1-(2-morpholino-4-(trifluoromethyl)benzyl)-1,8-diazaspiro[4.5]decane-8-carboxylate]
# (# is < 25%) | # (# is < 25%) | # (# is < 25%) | CC1(C(=O)O)CN(c2cc(CN3CCCC34CCN(C(=O)OC(C(F)(F)F)C(F)(F)F)CC4)cc(C(F)(F)F)c2)CCO1 (stereo not drawn) [Example 195, 4-(3-((8-(((1,1,1,3,3,3-hexafluoropropan-2-yl)oxy)carbonyl)-1,8-diazaspiro[4.5]decan-1-yl)methyl)-5-(trifluoromethyl)phenyl)-2-methylmorpholine-2-carboxylic acid]
# (# is < 25%) | ### (### is ≥ 75%) | # (# is < 25%) | O=C(O)C1CCN(c2cc(F)cc(CN3CCCC34CCN(C(=O)OC(C(F)(F)F)C(F)(F)F)CC4)c2)CC1 [Example 236]
# (# is < 25%) | # (# is < 25%) | # (# is < 25%) | CN1CCC(Oc2cc(CN3CCCC34CCN(C(=O)OC(C(F)(F)F)C(F)(F)F)CC4)cc(C(F)(F)F)c2)CC1 [Example 166, 1,1,1,3,3,3-Hexafluoropropan-2-yl 1-(3-(1-methylpiperidin-4-yloxy)-5-(trifluoromethyl)benzyl)-1,8-diazaspiro[4.5]decane-8-carboxylate]
